Laboratory results reported in PubChem BioAssay AID1963840 (Molecular Pharmacology Branch, DTP, NCI, 2024).
pIC50: −log10 of the molar value.

System: 695427-040-R-J1-PDC complex spheroid viability
Assay: Anticancer human tumor 695427-040-R-J1-PDC patient-derived colon adenocarcinoma cell line growth inhibition [POLQ]
Details: for pIC50: curve of first compound; for viability, T/C: stronger effect = lower value
Outline: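 Three-cell-type spheroids modelling solid tumor plus stroma served as the readout system; POL inhibitors were tested individually and in combination, concentration ranges set by clinical Cmax where known.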
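Also: spheroids exposed to compounds for seven days.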
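For viability, T/C in this document: 100% = DMSO vehicle control viability.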

CC[C@@]1(O)C(=O)OCc2c1cc1n(c2=O)Cc2cc3c(CN(C)C)c(O)ccc3nc2-1 + Nc1ccc(C#CCN(C(=O)Cc2ncc(C(F)(F)F)cc2C(F)(F)F)c2ccc(F)cc2)nn1
pIC50 (second compound 0.0316 µM): < 7.00 | pIC50 (second compound 0.1 µM): < 7.00 | pIC50 (second compound 0.316 µM): < 7.00 | pIC50 (second compound 1 µM): < 7.00 | pIC50 (second compound 3.16 µM): < 7.00 | pIC50 (second compound 10 µM): < 7.00 | viability, T/C (second compound 0.0316 µM, first compound 0.000316 µM): 110% | viability, T/C (second compound 0.0316 µM, first compound 0.001 µM): 111% | viability, T/C (second compound 0.0316 µM, first compound 0.00316 µM): 102% | viability, T/C (second compound 0.0316 µM, first compound 0.01 µM): 102% | viability, T/C (second compound 0.0316 µM, first compound 0.0316 µM): 115% | viability, T/C (second compound 0.0316 µM, first compound 0.1 µM): 109% | viability, T/C (second compound 0.1 µM, first compound 0.000316 µM): 114% | viability, T/C (second compound 0.1 µM, first compound 0.001 µM): 105% | viability, T/C (second compound 0.1 µM, first compound 0.00316 µM): 104% | viability, T/C (second compound 0.1 µM, first compound 0.01 µM): 100% | viability, T/C (second compound 0.1 µM, first compound 0.0316 µM): 107% | viability, T/C (second compound 0.1 µM, first compound 0.1 µM): 103% | viability, T/C (second compound 0.316 µM, first compound 0.000316 µM): 109% | viability, T/C (second compound 0.316 µM, first compound 0.001 µM): 102% | viability, T/C (second compound 0.316 µM, first compound 0.00316 µM): 108% | viability, T/C (second compound 0.316 µM, first compound 0.01 µM): 97.7% | viability, T/C (second compound 0.316 µM, first compound 0.0316 µM): 108% | viability, T/C (second compound 0.316 µM, first compound 0.1 µM): 101% | viability, T/C (second compound 1 µM, first compound 0.000316 µM): 100% | viability, T/C (second compound 1 µM, first compound 0.001 µM): 97.8% | viability, T/C (second compound 1 µM, first compound 0.00316 µM): 105% | viability, T/C (second compound 1 µM, first compound 0.01 µM): 109% | viability, T/C (second compound 1 µM, first compound 0.0316 µM): 110% | viability, T/C (second compound 1 µM, first compound 0.1 µM): 103% | viability, T/C (second compound 3.16 µM, first compound 0.000316 µM): 107% | viability, T/C (second compound 3.16 µM, first compound 0.001 µM): 111% | viability, T/C (second compound 3.16 µM, first compound 0.00316 µM): 102% | viability, T/C (second compound 3.16 µM, first compound 0.01 µM): 107% | viability, T/C (second compound 3.16 µM, first compound 0.0316 µM): 114% | viability, T/C (second compound 3.16 µM, first compound 0.1 µM): 103% | viability, T/C (second compound 10 µM, first compound 0.000316 µM): 99.5% | viability, T/C (second compound 10 µM, first compound 0.001 µM): 98.3% | viability, T/C (second compound 10 µM, first compound 0.00316 µM): 103% | viability, T/C (second compound 10 µM, first compound 0.01 µM): 89.4% | viability, T/C (second compound 10 µM, first compound 0.0316 µM): 95.3% | viability, T/C (second compound 10 µM, first compound 0.1 µM): 93.9%

CC(=O)O[C@H]1C(=O)[C@@]2(C)[C@H]([C@H](OC(=O)c3ccccc3)[C@]3(O)C[C@H](OC(=O)[C@H](O)[C@@H](NC(=O)c4ccccc4)c4ccccc4)C(C)=C1C3(C)C)[C@]1(OC(C)=O)CO[C@@H]1C[C@@H]2O + Cc1cccc(N(C)C(=O)C2C(O)CCN2c2nc(C)cc(C(F)(F)F)c2C#N)c1
pIC50 (second compound 0.0316 µM): < 5.52 | pIC50 (second compound 0.1 µM): < 5.52 | pIC50 (second compound 0.316 µM): < 5.52 | pIC50 (second compound 1 µM): < 5.52 | pIC50 (second compound 3.16 µM): < 5.52 | pIC50 (second compound 10 µM): < 5.52 | viability, T/C (second compound 0.0316 µM, first compound 0.00949 µM): 96.5% | viability, T/C (second compound 0.0316 µM, first compound 0.03 µM): 102% | viability, T/C (second compound 0.0316 µM, first compound 0.0949 µM): 96.3% | viability, T/C (second compound 0.0316 µM, first compound 0.3 µM): 98.9% | viability, T/C (second compound 0.0316 µM, first compound 0.949 µM): 94.7% | viability, T/C (second compound 0.0316 µM, first compound 3 µM): 77.9% | viability, T/C (second compound 0.1 µM, first compound 0.00949 µM): 112% | viability, T/C (second compound 0.1 µM, first compound 0.03 µM): 106% | viability, T/C (second compound 0.1 µM, first compound 0.0949 µM): 91.8% | viability, T/C (second compound 0.1 µM, first compound 0.3 µM): 95.3% | viability, T/C (second compound 0.1 µM, first compound 0.949 µM): 98.3% | viability, T/C (second compound 0.1 µM, first compound 3 µM): 79.7% | viability, T/C (second compound 0.316 µM, first compound 0.00949 µM): 111% | viability, T/C (second compound 0.316 µM, first compound 0.03 µM): 94.8% | viability, T/C (second compound 0.316 µM, first compound 0.0949 µM): 95% | viability, T/C (second compound 0.316 µM, first compound 0.3 µM): 89.5% | viability, T/C (second compound 0.316 µM, first compound 0.949 µM): 104% | viability, T/C (second compound 0.316 µM, first compound 3 µM): 78.7% | viability, T/C (second compound 1 µM, first compound 0.00949 µM): 102% | viability, T/C (second compound 1 µM, first compound 0.03 µM): 93.3% | viability, T/C (second compound 1 µM, first compound 0.0949 µM): 91.9% | viability, T/C (second compound 1 µM, first compound 0.3 µM): 98.3% | viability, T/C (second compound 1 µM, first compound 0.949 µM): 101% | viability, T/C (second compound 1 µM, first compound 3 µM): 73.1% | viability, T/C (second compound 3.16 µM, first compound 0.00949 µM): 97.4% | viability, T/C (second compound 3.16 µM, first compound 0.03 µM): 94.2% | viability, T/C (second compound 3.16 µM, first compound 0.0949 µM): 91.8% | viability, T/C (second compound 3.16 µM, first compound 0.3 µM): 88.8% | viability, T/C (second compound 3.16 µM, first compound 0.949 µM): 97% | viability, T/C (second compound 3.16 µM, first compound 3 µM): 80.6% | viability, T/C (second compound 10 µM, first compound 0.00949 µM): 91.3% | viability, T/C (second compound 10 µM, first compound 0.03 µM): 83.9% | viability, T/C (second compound 10 µM, first compound 0.0949 µM): 87.9% | viability, T/C (second compound 10 µM, first compound 0.3 µM): 85.1% | viability, T/C (second compound 10 µM, first compound 0.949 µM): 94.8% | viability, T/C (second compound 10 µM, first compound 3 µM): 84.2%
